From publication PMC9105583, “Stereoselective Synthesis and Anticancer Activity of 2,6-Disubstituted trans-3-Methylidenetetrahydropyran-4-ones” (Materials, 2022)
Read-outs that look alike come from different tables or passages of the source.

How the values were obtained:
HL-60 cells = experiment: MTT assay, metabolic activity (cytotoxicity); assay type: cell-based, human; conditions: for IC50: 48 h incubation, MTT, mean ± SEM, read-out: IC50 HL-60
Description: (§1) Metabolic activity by MTT assay
(§2) The MTT (3-([…])-2,5-diphenyl tetrazolium bromide) assay was performed to assess the cytotoxicity of the investigated compounds. Briefly, HL-60, MCF-7 and HUVEC cells were seeded in 24-well plates at density of 8 × 10^4/mL. After 24 h incubation, cells were treated with various concentrations of the compounds and incubated for another 24 h or 48 h. Then, the cells were incubated with MTT solution (100 µL; 5 mg/mL in PBS) for 1.5 h and centrifuged. The formazan product was dissolved in DMSO, and the absorption was measured using FlexStation 3 Multi-Mode Microplate Reader (Molecular Devices, LLC, San Jose, CA, USA) at 560 nm. Assays were performed twice in triplicate for each analog.
(§3) The cytotoxic activity of the obtained methylidenetetrahydropyran-4-ones was investigated in two cancer cell lines, human promyelocytic leukemia (HL-60) and breast cancer adenocarcinoma (MCF-7), and in healthy umbilical vein endothelial cells (HUVEC), for comparison. An anticancer drug, carboplatin, was used as a reference compound. Metabolic activity of the cells was assessed after 48 h incubation with various concentrations of the analogs (Table 6). Purity of all final compounds was determined on the basis of their ^1H NMR spectra (signal-to-noise ratio and presence of unidentified signals) and was at least 98%, in most cases even over 99%.

MCF-7 cells = experiment: MTT assay, metabolic activity (cytotoxicity); assay type: cell-based, human; conditions: mean ± SEM
Description: as §1, §2, §3

HUVEC cells = experiment: MTT assay, metabolic activity (cytotoxicity), normal cell line; assay type: cell-based, human; conditions: 48 h incubation, mean ± SEM
Description: as §1, §2, §3

[1] = system: mouse lymphocytic leukemia cells (L1210); design: method as in PMID 18078344; conditions: cited from earlier work
[2] = system: human cancer cell lines, including lymphoid leukemia L1210 and leukemia P388; design: method as in PMID 3693116; conditions: cited from earlier work
[3] = system: Ehrlich ascites carcinoma; design: method as in PMID 3693116; conditions: cited from earlier work
[4] = system: HL-60 human leukemia cells; design: method as in PMID 32019209; conditions: cited from earlier work
[5] = Stability of the compound at room temperature; assay type: physicochemical
Description: Next, we made an attempt to transform the obtained 2-substituted-5-diethoxyphosphoryltetrahydropyran-4-ones 14a-d into target 2-substituted-5-methylidenetetrahydropyran-4-ones 15a-d, using Horner–Wadsworth–Emmons olefination. The reaction was carried out with 2 equivalents of K2CO3, 10 equivalents of formalin, THF as a solvent and room temperature for 3 h. Unfortunately, the obtained 3-methylidenetetrahydropyran-4-ones 15a-c,e, turned out to be unstable at room temperature and decomposed during column chromatography.

[6] = Homo sapiens, MCF7, 48 h incubation

Compound | IC50 (HL-60 cells) [µM] | IC50 (HL-60 cells; Homo sapiens, HL-60, 48 h) [µM] | IC50 (MCF-7 cells; [6]) [µM] | also measured
C=C1C(=O)C[C@H](c2ccc(OC)cc2)O[C@H]1C(C)C (relative stereo) [Analog 13j, Trans-2-isopropyl-6-(4-methoxyphenyl)-3-methylidenetetrahydro-4H-pyran-4-one] | 3.75 ± 0.07 | < 4 | 9.11 ± 0.02 | IC50 (HUVEC cells; Homo sapiens, HUVEC): 4.25 ± 0.05 µM
C[C@H]1CCC/C=C\[C@H]2C=C[C@H](O)[C@H](CC(=O)O1)O2 [aspergillide C] |  |  |  | cytotoxic activity [1]: showed cytotoxic activity
C=C1C(=O)[C@]2(C)C(=O)O[C@@]34C[C@H](C)C(C(=O)O)=C[C@@H]3CCC[C@@H](C)C[C@@H](C)[C@H]1OC24 (single isomer, unassigned; (+)) [(+)-okilactomycin] |  |  |  | in vitro cytotoxicity [2]: exhibits in vitro cytotoxicity; in vivo activity [3]: in vivo activity
C=C1C(=O)C[C@H](C(C)C)O[C@H]1CCCC (relative stereo) [Analog 13e, Trans-2-butyl-6-isopropyl-3-methylidenetetrahydro-4H-pyran-4-one] |  | 78.8 ± 5.25 | > 150 | 
C=C1C(=O)C[C@H](CC)O[C@H]1C(C)C (relative stereo) [Analog 13a, Trans-6-ethyl-2-isopropyl-3-methylidenetetrahydro-4H-pyran-4-one] |  | 21.3 ± 1 | 20.4 ± 0.35 | 
C=C1C(=O)C[C@H](c2ccc(OC)cc2)O[C@H]1CCCC (relative stereo) [Analog 13k, Trans-2-butyl-6-(4-methoxyphenyl)-3-methylidenetetrahydro-4H-pyran-4-one] |  | > 100 | > 100 | 
C=C1C(=O)CC(C)(C)OC1C(C)C (stereo not drawn) [6-isopropyl-2,2-dimethyl-5-methylidenetetrahydropyran-4-one] |  |  |  | apoptosis [4]: induced apoptosis; cell cycle [4]: arrest of the cell cycle in the G2/M phase; cytotoxic activity [4]: very high cytotoxic activity
C=C1C(=O)C[C@H](C(C)C)O[C@H]1c1ccccc1 (relative stereo) [Analog 13f, Trans-6-isopropyl-3-methylidene-2-phenyltetrahydro-4H-pyran-4-one] |  | 8.45 ± 0.05 | 69.7 ± 2.16 | IC50 (HUVEC cells; Homo sapiens, HUVEC): 11.9 ± 2.32 µM
C=C1C(=O)C[C@H](CC)O[C@H]1c1ccccc1 (relative stereo) [Analog 13c, Trans-6-ethyl-3-methylidene-2-phenyltetrahydro-4H-pyran-4-one] |  | 11.8 ± 0.15 | 36 ± 0.41 | 
Trans-2-buthyl-6-ferrocenyl-3-methylidenetetrahydro-4H-pyran-4-one [Analog 13n] | 62.6 ± 0.61 |  |  | IC50 (MCF-7 cells; 48 h incubation): > 100 µM
C=C1C(=O)C[C@H](c2ccccc2)O[C@H]1c1ccccc1 (relative stereo) [Analog 13i, Trans-3-methylidene-2,6-diphenyltetrahydro-4H-pyran-4-one] |  | 36 ± 1.41 | > 200 | 
C=C1C(=O)C[C@H](CC)O[C@H]1CCCC (relative stereo) [Analog 13b, Trans-2-butyl-6-ethyl-3-methylidenetetrahydro-4H-pyran-4-one] |  | 39.15 ± 0.15 | 106.5 ± 0.5 | 
C=C1C(=O)C[C@H](c2ccc(OC)cc2)O[C@H]1c1ccccc1 (relative stereo) [Analog 13l, Trans-6-(4-methoxyphenyl)-3-methylidene-2-phenyltetrahydro-4H-pyran-4-one] |  | 25 ± 0.94 | 203 ± 56 | 
C=C1C(=O)C[C@H](c2ccccc2)O[C@H]1CCCC (relative stereo) [Analog 13h, Trans-2-buthyl-3-methylidene-6-phenyltetrahydro-4H-pyran-4-one] | 134 ± 1 |  |  | IC50 (MCF-7 cells; 48 h incubation): > 150 µM
C=C1C(=O)C[C@H]([c-]2cccc2)O[C@H]1c1ccccc1.[Fe+2].c1cc[cH-]c1 (relative stereo) [Analog 13o, Trans-6-ferrocenyl-3-methylidene-2-phenyltetrahydro-4H-pyran-4-one] | > 100 |  |  | IC50 (MCF-7 cells; 48 h incubation): > 100 µM
N.N.O=C([O-])C1(C(=O)[O-])CCC1.[Pt+2] [Carboplatin, carboplatin, reference compound] | 2.53 ± 0.2 |  |  | IC50 (MCF-7 cells; 48 h incubation): 3.76 ± 0.35 µM; IC50 (HUVEC cells): 5.35 ± 0.05 µM
C=C1COC(c2ccc(OC)cc2)CC1=O (stereo not drawn) [Analog 15d, 2-(4-Methoxyphenyl)-5-methylidenetetrahydro-4H-pyran-4-one] |  | 163 ± 7.07 | > 200 | cytotoxic activity (HL-60 cells; HL-60 and MCF-7, 48 h): practically inactive; stable for a prolonged period of time [5]: at least 7 days
C=C1C(=O)C[C@H]([c-]2cccc2)O[C@H]1C(C)C.[Fe+2].c1cc[cH-]c1 (relative stereo) [Analog 13m, Trans-6-ferrocenyl-2-isopropyl-3-methylidenetetrahydro-4H-pyran-4-one] | 3.87 ± 0.16 |  |  | IC50 (MCF-7 cells; 48 h incubation): 5.73 ± 0.36 µM
